The NIST ThermoML archive (doi:10.1021/je060271a)
Where “and” joins values, the source holds several entries; their conditions need not be identical. Equal values may be shown once.

Settings: 283.15 K, Liquid, Vibrating tube method

CCCCCC(=O)OCC(COC(=O)CCCCC)(COC(=O)CCCCC)COC(=O)CCCCC [pentaerythritol tetrahexanoate]
Settings | mass density
5731.2 kPa | 1007.5 kg/m3
5738.3 kPa | 1007.6 kg/m3
5746.2 kPa | 1007.4 kg/m3
5753.3 kPa | 1007.5 kg/m3
5760 kPa | 1007.4 kg/m3
5767.3 kPa | 1007.5 kg/m3
5775.5 kPa | 1007.5 kg/m3
5783.9 kPa | 1007.6 kg/m3
5790.7 kPa | 1007.4 kg/m3
5797.8 kPa | 1007.5 kg/m3
5804.7 kPa | 1007.5 kg/m3
5812.8 kPa | 1007.6 kg/m3
5819.9 kPa | 1007.5 kg/m3
5826.8 kPa | 1007.5 kg/m3
5833.7 kPa | 1007.4 kg/m3
5842.2 kPa | 1007.5 kg/m3
5849.3 kPa | 1007.5 kg/m3
5856.6 kPa | 1007.5 kg/m3
5863.6 kPa | 1007.7 kg/m3
5872 kPa | 1007.5 kg/m3
5878.9 kPa | 1007.5 kg/m3
5885.8 kPa | 1007.5 kg/m3
5894.4 kPa | 1007.7 kg/m3
5901.3 kPa | 1007.5 kg/m3
5908.3 kPa | 1007.6 kg/m3
5915.7 kPa | 1007.5 kg/m3
5924.3 kPa | 1007.6 kg/m3
5930 kPa | 1007.7 kg/m3
5935.7 kPa | 1007.7 kg/m3
5942.8 kPa | 1007.6 kg/m3
5953 kPa | 1007.5 kg/m3
5960.1 kPa | 1007.6 kg/m3
5968.6 kPa | 1007.6 kg/m3
5976.4 kPa | 1007.6 kg/m3
5984.7 kPa | 1007.6 kg/m3
5991.9 kPa | 1007.6 kg/m3
5999.2 kPa | 1007.7 kg/m3
6006.6 kPa | 1007.7 kg/m3
6015.4 kPa | 1007.6 kg/m3
6022.9 kPa | 1007.7 kg/m3
6030.1 kPa | 1007.6 kg/m3
6038.8 kPa | 1007.8 kg/m3
6046 kPa | 1007.6 kg/m3
6053.1 kPa | 1007.6 kg/m3
6061.9 kPa | 1007.7 kg/m3
6069.2 kPa | 1007.6 kg/m3
6076.6 kPa | 1007.8 kg/m3
6084.1 kPa | 1007.7 kg/m3
6092.7 kPa | 1007.8 kg/m3
6100.3 kPa | 1007.7 kg/m3
6107.6 kPa | 1007.6 kg/m3
6115.2 kPa | 1007.6 kg/m3
6124 kPa | 1007.8 kg/m3
6131.6 kPa | 1007.7 kg/m3
6139 kPa | 1007.7 kg/m3
6146.6 kPa | 1007.7 kg/m3
6155.4 kPa | 1007.7 kg/m3
6163 kPa | 1007.7 kg/m3
6170.1 kPa | 1007.8 kg/m3
6179.1 kPa | 1007.7 kg/m3
6186.9 kPa | 1007.6 kg/m3
6194.5 kPa | 1007.8 kg/m3
6202.1 kPa | 1007.8 kg/m3
6209.7 kPa | 1007.9 kg/m3
6218.9 kPa | 1007.8 kg/m3
6226.1 kPa | 1007.8 kg/m3
6233.7 kPa | 1007.8 kg/m3
6242.7 kPa | 1007.8 kg/m3
6250.3 kPa | 1007.9 kg/m3
6257.9 kPa | 1007.8 kg/m3
6265.5 kPa | 1007.8 kg/m3
6274.9 kPa | 1007.7 kg/m3
6282.3 kPa | 1007.9 kg/m3
6290.1 kPa | 1007.8 kg/m3
6299.1 kPa | 1007.7 kg/m3
6306.5 kPa | 1007.9 kg/m3
6314.3 kPa | 1007.8 kg/m3
6323.1 kPa | 1007.8 kg/m3
6330.4 kPa | 1007.8 kg/m3
6338.1 kPa | 1007.8 kg/m3
6346.1 kPa | 1007.8 kg/m3
6355.4 kPa | 1007.9 kg/m3
6362.3 kPa | 1007.8 kg/m3
6369.9 kPa | 1007.8 kg/m3
6377.7 kPa | 1007.8 kg/m3
6386.6 kPa | 1007.9 kg/m3
6394.2 kPa | 1007.9 kg/m3
6401.7 kPa | 1007.9 kg/m3
6409.5 kPa | 1007.9 kg/m3
6418.4 kPa | 1007.9 kg/m3
6426 kPa | 1007.9 kg/m3
6433.3 kPa | 1007.9 kg/m3
6442.5 kPa | 1007.9 kg/m3
6450.4 kPa | 1007.9 kg/m3
6458.4 kPa | 1007.9 kg/m3
6466.9 kPa | 1007.9 kg/m3
6474.6 kPa | 1007.9 kg/m3
6481.9 kPa | 1008 kg/m3
6491.1 kPa | 1007.8 kg/m3
6498.3 kPa | 1008 kg/m3
6505.6 kPa | 1008 kg/m3
6514.4 kPa | 1007.8 kg/m3
6522 kPa | 1007.9 kg/m3
6529.2 kPa | 1007.9 kg/m3
6536.7 kPa | 1008 kg/m3
6545 kPa | 1008 kg/m3
6552.2 kPa | 1007.9 kg/m3
6559.5 kPa | 1008.1 kg/m3
6566.4 kPa | 1007.9 kg/m3
6573.6 kPa | 1008 kg/m3
6578.7 kPa | 1007.9 kg/m3
6583 kPa | 1008 kg/m3
6587.1 kPa | 1008 kg/m3
6592.1 kPa | 1007.9 kg/m3
6596.3 kPa | 1008 kg/m3
6600.4 kPa | 1008.1 kg/m3
6605.4 kPa | 1007.9 kg/m3
6609.2 kPa | 1007.9 kg/m3
6613.4 kPa | 1007.9 kg/m3
6635.7 kPa | 1008 kg/m3
6640 kPa | 1008 kg/m3
6644.1 kPa | 1008.1 kg/m3
6649 kPa | 1008 kg/m3
6674.5 kPa | 1008 kg/m3
6679.6 kPa | 1008 kg/m3
6683.5 kPa | 1008.1 kg/m3
6687.7 kPa | 1008.1 kg/m3
6692 kPa | 1008.1 kg/m3
6696.5 kPa | 1008 kg/m3
6700.6 kPa | 1008 kg/m3
6704.6 kPa | 1008 kg/m3
6708.6 kPa | 1008 kg/m3
6713.2 kPa | 1008 kg/m3
6717.2 kPa | 1008.1 kg/m3
6759.5 kPa | 1008.1 kg/m3
6769.5 kPa | 1008.2 kg/m3 and 1008.1 kg/m3
6769.7 kPa | 1008.1 kg/m3 and 1008 kg/m3
6769.8 kPa | 1008 kg/m3 and 1008.2 kg/m3 and 1008.1 kg/m3
6770 kPa | 1008.1 kg/m3
6770.2 kPa | 1008 kg/m3 and 1008.1 kg/m3
6770.3 kPa | 1008.1 kg/m3
6770.4 kPa | 1008.1 kg/m3
6770.5 kPa | 1008.1 kg/m3
6770.7 kPa | 1008 kg/m3
6770.9 kPa | 1008 kg/m3 and 1008.1 kg/m3
